Results taken from publication PMC9099127 (Clinical and Translational Science, 2022).
Where two headings read alike, the source gives them in different places.

Assays:
[1] = assay type: in vivo, human (children 6–17 years); details: single oral dose 1.2 mg/kg LBW
[2] = after a 40 mg oral dose; range associated with therapeutic response; cited from earlier work

COc1ccnc(C[S+]([O-])c2nc3ccc(OC(F)F)cc3[nH]2)c1OC (centres unmarked) [PAN, pantoprazole]
PAN plasma AUCtot, Mean (SD) ([1]; CYP2C19 genotype *1*1 (n=30)): 10.04 (6.81) µM per mg/kg TBW | PAN plasma AUCtot, Range ([1]; CYP2C19 genotype *1*1 (n=30)): [2.68–33.75] µM per mg/kg TBW | PAN plasma AUCtot, Mean (SD) ([1]; CYP2C19 genotype *1*2 (n=10)): 18.07 (11.20) µM per mg/kg TBW | PAN plasma AUCtot, Range ([1]; CYP2C19 genotype *1*2 (n=10)): [7.36–41.31] µM per mg/kg TBW | PAN plasma AUCtot, Mean (SD) ([1]; CYP2C19 genotype *1*17 (n=16)): 7.84 (4.52) µM per mg/kg TBW | PAN plasma AUCtot, Range ([1]; CYP2C19 genotype *1*17 (n=16)): [2.26–18.59] µM per mg/kg TBW | PAN plasma AUCtot, Mean (SD) ([1]; CYP2C19 genotype *2*2 (n=1)): 226.59 (–) µM per mg/kg TBW | PAN plasma AUCtot, Mean (SD) ([1]; CYP2C19 genotype *2*17 (n=3)): 10.42 (3.40) µM per mg/kg TBW | PAN plasma AUCtot, Range ([1]; CYP2C19 genotype *2*17 (n=3)): [7.71–14.23] µM per mg/kg TBW | PAN plasma AUCtot, Mean (SD) ([1]; CYP2C19 genotype *17*17 (n=1)): 4.18 (–) µM per mg/kg TBW | typical therapeutic PAN plasma AUCtot [2]: 7 to 17 µM
